Results: US20230365488A1, “TRUXILLIC ACID MONOESTER-DERIVATIVES AS SELECTIVE FABP5 INHIBITORS AND PHARMACEUTICAL COMPOSITIONS AND USES THEREOF” (The Research Foundation for The State University of New York, priority 2020, published 2023)

Columns and labels:
FABP3 = FABP3 (Homo sapiens (Human), UniProt P05413); assay: FABP3 fluorescent probe displacement binding assay; settings: average ± S.E. of at least three independent experiments
FABP5 = FABP5 (Homo sapiens (Human), UniProt Q01469); assay: FABP5 fluorescent probe displacement binding assay; settings: for Ki: average ± S.E. of at least three independent experiments; for FABP3 Ki/FABP5 Ki: selectivity ratio FABP3 over FABP5
Chain of FABP5 (Q01469 whole entry): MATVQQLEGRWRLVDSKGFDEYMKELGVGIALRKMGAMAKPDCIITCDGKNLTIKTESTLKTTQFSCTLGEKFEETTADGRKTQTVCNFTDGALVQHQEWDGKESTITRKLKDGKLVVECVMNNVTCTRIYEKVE

FABP7 = FABP7 (Homo sapiens (Human), UniProt O15540); assay: FABP7 fluorescent probe displacement binding assay; settings: average ± S.E. of at least three independent experiments
Chain of FABP7 (O15540 whole entry): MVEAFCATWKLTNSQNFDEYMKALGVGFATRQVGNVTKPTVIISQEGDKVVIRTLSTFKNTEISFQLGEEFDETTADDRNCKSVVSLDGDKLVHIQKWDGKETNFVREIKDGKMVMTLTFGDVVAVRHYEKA

[1] = test system: PC-3 (human metastatic prostate cancer) cells; assay: Cytotoxicity (MTT) assay, PC-3 (Example 5); type: cell-based; settings: 72-hour incubation, 1% FBS, read-out: PC3 IC50
[2] = test system: HepG2 (human liver cancer) cells; assay: Cytotoxicity (MTT) assay, HepG2 (Example 5); type: cell-based; settings: 72-hour incubation, 1% FBS
[3] = test system: WI-38 (human normal lung fibroblast) cells; assay: Cytotoxicity (MTT) assay, WI-38 (Example 5); type: cell-based; settings: 72-hour incubation, 1% FBS

Chain of FABP3 (P05413 whole entry): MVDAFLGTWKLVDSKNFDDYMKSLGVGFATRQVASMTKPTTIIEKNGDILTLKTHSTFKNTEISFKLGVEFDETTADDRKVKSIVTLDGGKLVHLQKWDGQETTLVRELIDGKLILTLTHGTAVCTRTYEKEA

Row | SMILES | Ki (FABP3) | Ki (FABP5) | FABP3 Ki/FABP5 Ki (FABP5) | Ki (FABP7) | IC50 [1] | IC50 [2] | IC50 [3]
1 | COc1ccccc1[C@@H]1[C@H](C(=O)O)[C@@H](c2ccccc2OC)[C@H]1C(=O)Oc1ccc2cc(-c3cncnc3)ccc2c1 (racemic) [Compound 1k, (±)-α-2,4-di (2-methoxyphenyl)-3-[7-(5-pyrimidine)naphthalen-2-yloxycarbonyl]cyclobutane-1-carboxylic acid] | 4.78 ± 0.18 µM | 1.3 ± 0.09 µM | 3.7 | 6.36 ± 1.04 µM |  |  | 
2 | O=C1CCc2ccc(-c3cccc(OC(=O)[C@H]4[C@@H](c5ccccc5)[C@H](C(=O)O)[C@@H]4c4ccccc4)c3)cc2N1 [Compound 1u] | 7.67 ± 0.71 µM | 0.59 ± 0.08 µM | 13.0 | 0.33 ± 0.01 µM |  |  | 
3 | O=C(O)[C@H]1[C@H](c2ccccc2)[C@H](C(=O)Oc2ccccc2-c2ccccc2)[C@H]1c1ccccc1 [Compound 1z] | 0.7 ± 0.42 µM |  |  |  |  |  | 
4 | COc1ccccc1C1[C@@H](C(=O)O)[C@@H](c2ccccc2OC)[C@@H]1C(=O)OC1Cc2ccccc2C1 (mixture of isomers) [Compound 1l, (±)-α-3-(2,3-dihydro-1-inden-2-yloxycarbonyl)-2,4-di (2-methoxyphenyl)cyclobutane-1-carboxylic acid] | 53.8 ± 7.28 µM |  |  | 53.8 ± 7.28 µM | 48.9 µM | 45.5 µM | 63.7 µM
5 | O=C(O)[C@H]1[C@@H](c2ccccc2)[C@H](C(=O)OC2Cc3ccccc3C2)[C@@H]1c1ccccc1 [Compound 1v] | > 10 µM |  |  | 2.41 ± 0.09 µM |  |  | 
6 | COc1ccccc1[C@H]1[C@H](C(=O)O)[C@H](c2ccccc2OC)[C@H]1C(=O)OCC1(F)c2ccccc2-c2ccccc21 [Compound 1t] | 25.9 ± 2.4 µM | 1.83 ± 0.27 µM | 14.2 | 7.72 ± 1.2 µM |  |  | 
7 | COc1ccccc1C1[C@@H](C(=O)O)[C@@H](c2ccccc2OC)[C@@H]1C(=O)Oc1cccc(-c2ccc3c(c2)NC(=O)C3)c1 (mixture of isomers) [Compound 1j, (±)-α-2,4-di (2-methoxyphenyl)-3-[3-(2-oxoindolin-6-yl)phenoxycarbonyl]cyclobutane-1-carboxylic acid] | 3.29 ± 0.45 µM | 1.06 ± 0.08 µM |  |  |  |  | 
8 | O=C(O)[C@H]1[C@H](c2ccccc2)[C@H](C(=O)Oc2cccc3ccccc23)[C@H]1c1ccccc1 [Compound 1x] | 2.7 ± 0.42 µM |  |  | 0.45 ± 0.07 µM |  |  | 
9 | COc1ccccc1C1[C@@H](C(=O)O)[C@@H](c2ccccc2OC)[C@@H]1C(=O)Oc1cccc(-c2ccc(C#N)cc2)c1 (mixture of isomers) [Compound 1p, (±)-3-(4′-cyano-1,1′-biphenyl-3-yloxycarbonyl)-2,4-di (2-methoxyphenyl)cyclobutane-1-carboxylic acid] | 4.64 ± 0.04 µM | 1.74 ± 0.08 µM | 2.7 | 3.16 ± 0.43 µM |  |  | 
10 | O=C(O)[C@H]1[C@H](c2ccccc2)[C@H](C(=O)OCc2cccc3ccccc23)[C@H]1c1ccccc1 [Compound 1r, α-2,4-diphenyl-3-(1-naphthaylmethyl)cyclobutane-1-carboxylic acid] | 51.2 ± 5.71 µM | 2.64 ± 0.01 µM | 9.0 | 10.2 ± 1.42 µM |  |  | 
11 | COc1ccccc1C1[C@@H](C(=O)O)[C@@H](c2ccccc2OC)[C@@H]1C(=O)Oc1ccccc1-c1ccc2c(c1)OCCO2 (mixture of isomers) [Compound 1s, (±)-α-3-[2-(2,3-dihydrobenzo[b][1,4]dioxin-6-yl)phenoxycarbonyl]-2,4-bis(2-methoxyphenyl)cyclobutane-1-carboxylic acid] | 2.29 ± 0.56 µM | 2.81 ± 0.42 µM | 0.8 | 0.67 ± 0.15 µM |  |  | 
12 | O=C(O)[C@@H]1C(c2ccccc2)[C@@H](C(=O)Oc2ccccc2-c2ccc3c(c2)OCO3)[C@@H]1c1ccccc1 (mixture of isomers) [Compound 1i, (±)-α-3-[2-(benzo[d][1,3]dioxol-5-yl)phenoxycarbonyl]-2,4-di (2-dimethoxyphenyl)cyclobutane-1-dicarboxylic acid] | 1.13 ± 0.15 µM | 0.79 ± 0.18 µM | 1.4 | 0.32 ± 0.13 µM |  |  | 

Second part, led by results:

Row | Ki (FABP3) | Ki (FABP5) | FABP3 Ki/FABP5 Ki (FABP5) | Ki (FABP7) | SMILES | IC50 [1] | IC50 [2] | IC50 [3]
13 | 3.4 ± 0.54 µM | 1.65 ± 0.22 µM | 2.1 | 0.68 ± 0.16 µM | O=C(O)[C@@H]1C(c2ccccc2)[C@H](C(=O)OCc2ccccc2-c2ccccc2)[C@H]1c1ccccc1 (mixture of isomers) [Compound 3c, (±) -ε-3-(1,1′-biphenyl-2-ylmethoxycarbonyl)-2,4-diphenylcyclobutane-1-carboxylic acid] | 15 µM | 13.8 µM | 22.2 µM
14 | 6.86 ± 0.07 µM | 1.26 ± 0.12 µM | 5.4 | 1.78 ± 0.45 µM | COc1ccccc1[C@H]1[C@H](C(=O)O)[C@H](c2ccccc2OC)[C@@H]1C(=O)Oc1cccc(-c2cccc3c2OCCO3)c1 (racemic) [Compound 2c, (±)-γ-3-((3-(2,3-dihydrobenzo[b][1, 4]dioxin-5-yl)phenoxy)carbonyl)-2,4-di(2-methoxyphenyl)cyclobutane-1-carboxylic acid] | 10.1 µM | 16.4 µM | 52.1 µM
15 | 4.75 ± 0.57 µM |  |  | 2.07 ± 0.09 µM | O=C(O)[C@@H]1[C@@H](c2ccccc2)[C@H](C(=O)OC2Cc3ccccc3C2)[C@H]1c1ccccc1 [Compound 3a, (±)-ε-3-[(2,3-dihydro-1H-inden-2-yl)oxycarbonyl]-2,4-diphenylcyclobutane-1-carboxylic acid] |  |  | 
16 | 1.3 ± 0.18 µM | 2.56 ± 0.17 µM | 0.51 | 4.19 ± 0.71 µM | O=C(O)[C@H]1[C@H](c2ccccc2)[C@@H](C(=O)Oc2ccc3cc(-c4cncnc4)ccc3c2)[C@H]1c1ccccc1 (racemic) [Compound 2m, (±)-γ-2,4-diphenyl-3-[6-(pyrimidin-5-yl)naphthalen-2-yloxy)carbonyl]cyclobutane-1-carboxylic acid] |  |  | 
17 | 27.9 ± 6.37 µM | 2.46 ± 0.19 µM | 11.3 | 9.11 ± 1.47 µM | COc1ccccc1C1[C@@H](C(=O)O)[C@@H](c2ccccc2OC)[C@H]1C(=O)Oc1cccc(-c2ccc(C#N)cc2)c1 (mixture of isomers) [Compound 2g, (±)-γ-3-(4′-cyano-1,1′-biphenyl]-3-yloxycarbonyl)-2,4-di (2-methoxyphenyl)cyclobutane-1-carboxylic acid] |  |  | 
18 | 4.07 ± 0.24 µM | 7.59 ± 1.11 µM | 0.54 | 3.49 ± 0.49 µM | O=C1CCc2cc(-c3cccc(OC(=O)[C@H]4[C@@H](c5ccccc5)[C@@H](C(=O)O)[C@@H]4c4ccccc4)c3)ccc2N1 (racemic) [Compound 2n, (±)-γ-3-[(3-(2-oxo-1,2,3,4-tetrahydroquinolin-6-yl)phenoxycarbonyl]-2,4-diphenylcyclobutane-1-carboxylic acid] |  |  | 
19 | 18.6 ± 0.73 µM |  |  | 2.15 ± 0.09 µM | O=C(O)[C@@H]1[C@@H](c2ccccc2)[C@H](C(=O)Oc2cccc(-c3ccccc3)c2)[C@H]1c1ccccc1 [Compound 3b, (±) -ε-3-(1,1′-biphenyl-3-yloxycarbonyl)-2,4-diphenylcyclobutane-1-carboxylic acid] |  |  | 
20 | 6.1 ± 1.34 µM | 1.77 ± 0.02 µM | 3.4 | 3.59 ± 0.24 µM | COc1ccccc1[C@H]1[C@H](C(=O)O)[C@H](c2ccccc2OC)[C@@H]1C(=O)Oc1cccc(-c2ccc(F)cc2)c1 (racemic) [Compound 2e, (±)-γ-3-(4′-fluoro-1,1′-biphenyl-3-yl)oxycarbonyl-2,4-di (2-methoxyphenyl)cyclobutane-1-carboxylic acid] |  |  | 
21 | 15.5 ± 1.91 µM | 3.4 ± 0.52 µM | 4.7 | 2.19 ± 0.04 µM | COc1ccccc1[C@H]1[C@H](C(=O)O)[C@H](c2ccccc2OC)[C@@H]1C(=O)Oc1cccc(-c2ccc(F)cc2)c1 [Compound 3e, ε-2,4-diphenyl-3-(4-fluorophenyl)phenoxycarbonylcyclobutane-1-carboxylic acid] |  |  | 
22 | 136 ± 16.4 µM |  |  | 5.14 ± 0.27 µM | COc1ccccc1C1[C@@H](C(=O)OC2Cc3ccccc3C2)[C@@H](c2ccccc2OC)[C@H]1C(=O)O (mixture of isomers) [Compound 2l, (±)-γ-3-(2,3-dihydro-1H-inden-2-yloxycarbonyl)-2,4-bis(2-methoxyphenyl)cyclobutane-1-carboxylic acid] |  |  | 
23 | 0.32 ± 0.03 µM |  |  | 0.38 ± 0.08 µM | O=C(O)[C@@H]1[C@@H](c2ccccc2)[C@H](C(=O)Oc2cccc3ccccc23)[C@H]1c1ccccc1 [Compound 3g] | 10.6 µM | 36.9 µM | 54.2 µM
24 | 7.84 ± 0.7 µM | 3.15 ± 0.28 µM | 2.5 | 1.49 ± 0.15 µM | O=C(O)[C@@H]1[C@@H](c2ccccc2)[C@H](C(=O)Oc2cccc(-c3ccc4c(c3)OCCO4)c2)[C@H]1c1ccccc1 [Compound 3d, (±)-ε-3-[3-(2,3-dihydrobenzo[b][1,4]dioxin-6-yl)phenoxycarbonyl]-2,4-diphenylcyclobutane-1-carboxylic acid] |  |  | 
25 | 5.78 ± 1.3 µM | 1.39 ± 0.07 µM | 4.1 | 0.95 ± 0.05 µM | N#Cc1ccc(-c2ccccc2OC(=O)[C@H]2C(c3ccccc3)[C@@H](C(=O)O)[C@H]2c2ccccc2)cc1 (mixture of isomers) [Compound 2d, (±)-γ-3-(4′-cyano-1,1′-biphenyl]-2-yloxycarbonyl)-2,4-diphenylcyclobutane-1-carboxylic acid] |  |  | 
26 | 1.66 ± 0.45 µM |  |  | 1.45 ± 0.52 µM | COc1ccccc1[C@H]1[C@H](C(=O)O)[C@H](c2ccccc2OC)[C@@H]1C(=O)Oc1cccc2ccccc12 (racemic) [Compound 2f, (±)-γ-2,4-di (2-methoxyphenyl)-3-(naphthalen-1-yloxycarbonyl)cyclobutane-1-carboxylic acid] |  |  | 
27 | 8.18 ± 2.67 µM | 3.69 ± 0.65 µM | 2.2 | 5.12 ± 0.32 µM | COc1ccccc1C1[C@@H](C(=O)O)[C@@H](c2ccccc2OC)[C@H]1C(=O)Oc1cccc(-c2ccc3c(c2)OCCO3)c1 (mixture of isomers) [Compound 2k, (±)-γ-3-[3-(2,3-dihydrobenzo[b][1,4]dioxin-6-yl)phenoxycarbonyl]-2,4-di(2-methoxyphenyl)cyclobutane-1-carboxylic acid] |  |  | 
